In patent publication US20220033435A1, “Cyclic Di-Nucleotide Compounds as STING Agonists” (Merck Sharp & Dohme Corp., priority 2018, published 2022):

Assays:
THP1 cells = experiment: IFN-β secretion in THP1 cell culture (5 h); type: cell-based, human; details: cGAMP at 30 uM set at 100%
Procedure: IFN-β secretion in THP1 cell culture (5 h)
The ability of compounds to stimulate the secretion of interferon-beta from THP1 cells was measured using a human IFN-0 AlphaLISA kit (Perkin Elmer, Cat. No. AL265F). The basic protocol is as follows:
A Labcyte Echo 550 acoustic dispenser was used to transfer 120 nL of compound dissolved in DMSO into the wells of an empty, sterile 384-well microplate, (Corning, Cat. No. 3712). THP1 cells (American Type Culture Collection, Cat. No. TIB202) previously frozen in Recovery Medium (Life Technologies, Cat. No. 12648-010) were thawed and immediately diluted 10-fold into 37° C. assay medium (RPMI 1640+L-Glutamine & phenol red, Life Technologies, Cat. No. 11875-085; 0.5% heat inactivated fetal bovine serum, Sigma Aldrich, Cat. No. F4135; 1 mM Sodium Pyruvate, Life Technologies, Cat. No. 11360-070; 1× non-essential amino acids; Life Technologies, Cat. No. 11140-050). The cell viability and count was ascertained using a Beckman Coulter V-Cell XR cell counter. The cell suspension was centrifuged at 200×g for 5 min at RT. Cells were resuspended to a density of 0.8×10^6/mL in 37° C. assay medium. Subsequent liquid transfers were performed using either a Matrix electronic multichannel pipette or an Agilent Bravo Automated Liquid Handling Platform. The assay was started by dispensing 40 μL of the previously prepared cell suspension into the wells of the plate containing compounds. After 5 h incubation at 37° C., 5% CO2 in a humidified atmosphere, the plate of cells and compounds was centrifuged at 200×g for 5 min at RT. From each well, 5 μL of supernatant was transferred into corresponding wells of a white 384-well plate (Perkin Elmer, Cat. No. 6005620). To these supernatant-containing wells was added 10 μL of 5× Anti-Analyte Acceptor beads (50 μg/mL of AlphaLISA HiBlock Buffer) and incubated for 30 min at RT while shaking on an orbital plate shaker. To each well was added 10 μL of 5× Biotinylated Antibody Anti-analyte (5 nM in AlphaLISA HiBlock Buffer) and incubated on an orbital plate shaker for 60 min at RT or overnight at 4° C. To each well was added 25 μL of 2×SA-Donor beads (80 μg/mL in AlphaLISA HiBlock Buffer) and incubated for 30-45 min at RT in the dark while shaking on an orbital plate shaker. The plate was then read on a Perkin Elmer Envision (λex=680 nm, […]). The percent effect of the AlphaLISA signal at each compound concentration was calculated based on 30 uM cGAMP positive controls and 0.3% DMSO negative controls. The plot of percent effect versus the log of compound concentration was fit with a 4-parameter concentration response equation to calculate EC50 values. The test compounds were tested at concentrations 30000, 10000, 3333, 1111, 370.4, 123.4, 41.2, 13.7, 4.6, and 1.5 nM with 0.3% residual DMSO. The control compound, cGAMP was tested at concentrations 100000, 33333, 11111, 3704, 1235, 412, 137, 46, and 15 nM with 0.3% residual DMSO.
Compounds of the disclosure were evaluated for IFN-β secretion in THP1 cell culture as described above. The following table tabulates the biological data for these compounds as percent activation relative to 2′3′-cGAMP at the 30 μM concentration.

full-length HAQ STING = biological target: T1, full-length HAQ STING (Homo sapiens, UniProt Q86WV6, G230A/H232R/R293Q/R71H); experiment: 3H-cGAMP filtration binding assay (HAQ STING); details: competition with tritiated cGAMP ligand, HAQ STING membrane
T1 construct: Full-Length HAQ STING [STING(1-379)R71H, G230A, H232R,; made in house; host or cells: Trichoplusia ni (Hi-Five) insect cells infected with baculovirus; washed membranes were used
From the text: The ability of compounds to bind STING is quantified by the ability to compete with tritiated cGAMP ligand for human STING receptor membrane using a radioactive filter-binding assay. The binding assay employs STING receptor obtained from Hi-Five cell membranes overexpressing full-length HAQ STING prepared in-house and tritiated cGAMP ligand also purified in-house.
The ability of compounds to bind STING is quantified by their ability to compete with tritiated cGAMP ligand for human STING receptor membrane using a radioactive filter-binding assay. The binding assay employs STING receptor obtained from Trichoplusia ni cell membranes (T.ni; Expression Systems, cat #94-002F, www.expressionsystems.com) overexpressing full-length HAQ STING and tritiated cGAMP ligand.
The basic HAQ STING filtration assay protocol is as follows:
Compound and membrane then preincubated for 60 min at RT to allow compound binding to equilibrate. Following equilibration, 8 nM of [^3H]c-GAMP ligand was prepared by diluting into assay buffer, and 50 uL of this working stock was then manually added to each well of the assay plate. […] The filter plates were then dried at 55° C. for 30 min using a pressurized oven before 30 uL of ULTIMA GOLD F scintillate was added to each well. Tritium levels for each reaction well were then measured using a PerkinElmer TopCount plate reader.
After normalization to controls, the percent activity for each compound concentration was calculated by measuring the amount of remaining radioactivity. The plot of percent activity versus the log of compound concentration was fit with a 4-parameter dose response equation to calculate EC50 values.

T1 sequence (Q86WV6 with tags, fused parts or gaps R71H/G230A/H232R/R293Q): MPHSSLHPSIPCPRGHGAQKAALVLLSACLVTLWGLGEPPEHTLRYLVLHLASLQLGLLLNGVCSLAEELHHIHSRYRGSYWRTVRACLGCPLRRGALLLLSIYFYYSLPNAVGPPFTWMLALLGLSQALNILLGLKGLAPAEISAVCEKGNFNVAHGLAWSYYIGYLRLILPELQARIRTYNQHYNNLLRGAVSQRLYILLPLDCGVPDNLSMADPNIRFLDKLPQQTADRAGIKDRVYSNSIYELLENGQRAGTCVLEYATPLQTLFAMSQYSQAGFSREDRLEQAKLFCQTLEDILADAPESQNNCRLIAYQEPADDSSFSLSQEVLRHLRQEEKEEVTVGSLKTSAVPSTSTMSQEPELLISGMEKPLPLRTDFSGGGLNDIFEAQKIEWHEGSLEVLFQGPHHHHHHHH

SMILES	% Effect at 30 μM relative to 2′3′-cGAMP (THP1 cells)	EC50 (full-length HAQ STING)
Nc1nc2c(ncn2[C@@H]2O[C@@H]3COP(=O)(S)O[C@@H]4C[C@H](n5cnc6c(N)ncnc65)O[C@@H]4COP(=O)(S)O[C@@H]2[C@@H]3F)c(=O)[nH]1 (single isomer, unassigned) [Example 1]	112%	
Nc1ncnc2c1ncn2[C@@H]1O[C@@H]2COP(=O)(S)O[C@@H]3[C@H](O)[C@@H](COP(=O)(S)O[C@@H]2[C@H]1O)O[C@H]3n1ccc(=O)n2ccnc12 (single isomer, unassigned) [Example 5]	62%	4410 nM
Nc1nc2c(ncn2[C@@H]2O[C@@H]3COP(=O)(S)O[C@@H]4[C@@H](O)[C@H](n5cnc6c(N)ncnc65)O[C@@H]4COP(=O)(S)O[C@@H]2C3)c(=O)[nH]1 (stereo partly drawn) [Example 3, 2-amino-9-[(5S,7R,8R,12aR,14R,15R,15aR)-14-(6-amino-9H-purin-9-yl)-15-hydroxy-2,10-dioxido-2,10-disulfanyloctahydro-12H-5,8-methanofuro[3,2-l][1,3,6,9,11,2,10]penta-oxadiphosphacyclotetradecin-7-yl]-1,9-dihydro-6H-purin-6-one]	63%	
Nc1nc2c(ncn2[C@@H]2O[C@@H]3COP(=O)(S)O[C@@H]4[C@H](F)[C@H](n5cnc6c(N)ncnc65)O[C@@H]4COP(=O)(S)O[C@@H]2C3)c(=O)[nH]1 (single isomer, unassigned) [Example 6]	61%	48.6 nM
Nc1nc2c(ncn2[C@@H]2O[C@@H]3COP(=O)(S)O[C@@H]4[C@H](F)[C@H](n5cnc6c(N)ncnc65)O[C@@H]4COP(=O)(S)O[C@@H]2C3)c(=O)[nH]1 (single isomer, unassigned) [Example 7]	118%	2.35 nM
Nc1nc2c(ncn2[C@@H]2O[C@@H]3COP(=O)(S)O[C@@H]4C[C@H](n5cnc6c(N)ncnc65)O[C@@H]4COP(=O)(S)O[C@@H]2[C@@H]3F)c(=O)[nH]1 (single isomer, unassigned) [Example 2]	114%	
Nc1ncnc2c1ncn2[C@@H]1O[C@@H]2COP(=O)(S)O[C@@H]3[C@H](O)[C@@H](COP(=O)(S)O[C@@H]2[C@H]1O)O[C@H]3n1ccc(=O)n2ccnc12 (single isomer, unassigned) [Example 4]	30%	3690 nM
